Tests used:
[1] = tested on: TE-9 (Esophageal Squamous Cell Carcinoma); assay: Bliss excess, mean over the matrix (fraction); higher = more synergy
Outline: (§1)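 Bliss excess equals the observed combination effect minus the expected value EA + EB − EA·EB, where EA and EB are the effects of each agent alone. Combination Emax is the second-highest inhibition within the matrix. Inhibition was scaled from CellTiter-Glo 2.0 luminescence, with 0 set by vehicle wells and 1 by blank wells, after 72 hours of two-drug dosing of cells plated in 1536-well plates.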

KELLY (Neuroblastoma) [2] = assay: as above
Outline: as §1

[3] = tested on: HT-1376 (Bladder Carcinoma); assay: as above
Outline: as §1

NB10 (Neuroblastoma) = assay: as above
Outline: as §1

HOS (Osteosarcoma) [4] = assay: as above
Outline: as §1

[5] = tested on: Hs-578-T (Breast Carcinoma); assay: as above
Outline: as §1

[6] = tested on: NCI-H82 (Small Cell Lung Carcinoma); assay: as above
Outline: as §1

[7] = tested on: UM-UC-3 (Bladder Carcinoma); assay: as above
Outline: as §1

[8] = tested on: CAL-148 (Breast Carcinoma); assay: as above
Outline: as §1

[9] = tested on: DoTc2-4510 (Cervical Carcinoma); assay: as above
Outline: as §1

[10] = tested on: Calu-3 (Lung Adenocarcinoma); assay: as above
Outline: as §1

[11] = tested on: CCRF-CEM (T-Lymphoblastic Leukemia); assay: as above
Outline: as §1

[12] = tested on: LB831-BLC (Bladder Carcinoma); assay: as above
Outline: as §1

[13] = tested on: Ramos-2G6-4C10 (Burkitt's Lymphoma); assay: as above
Outline: as §1

[14] = tested on: ME-1 (Acute Myeloid Leukemia); assay: as above
Outline: as §1

[15] = tested on: RO82-W-1 (Thyroid Gland Carcinoma); assay: as above
Outline: as §1

[16] = tested on: KURAMOCHI (Ovarian Carcinoma); assay: as above
Outline: as §1

[17] = tested on: HO-1-N-1 (Oral Cavity Carcinoma); assay: as above
Outline: as §1

[18] = tested on: LS-180 (Colorectal Carcinoma); assay: as above
Outline: as §1

[19] = tested on: NCI-H2085 (Non-Small Cell Lung Carcinoma); assay: as above
Outline: as §1

[20] = tested on: CaR-1 (Colorectal Carcinoma); assay: as above
Outline: as §1

[21] = tested on: HCC-78 (Lung Adenocarcinoma); assay: as above
Outline: as §1

T98G (Glioblastoma) [22] = assay: as above
Outline: as §1

[23] = tested on: TE-15 (Esophageal Squamous Cell Carcinoma); assay: as above
Outline: as §1

[24] = tested on: TE-9 (Esophageal Squamous Cell Carcinoma); assay: combination Emax (second highest fraction inhibited in the dose matrix, 72 h); higher = more inhibition; extreme values may be limits of the assay
Outline: as §1

KELLY (Neuroblastoma) [25] = assay: as above
Outline: as §1

[26] = tested on: HT-1376 (Bladder Carcinoma); assay: as above
Outline: as §1

HOS (Osteosarcoma) [27] = assay: as above
Outline: as §1

[28] = tested on: Hs-578-T (Breast Carcinoma); assay: as above
Outline: as §1

[29] = tested on: NCI-H82 (Small Cell Lung Carcinoma); assay: as above
Outline: as §1

[30] = tested on: UM-UC-3 (Bladder Carcinoma); assay: as above
Outline: as §1

[31] = tested on: CAL-148 (Breast Carcinoma); assay: as above
Outline: as §1

[32] = tested on: DoTc2-4510 (Cervical Carcinoma); assay: as above
Outline: as §1

[33] = tested on: Calu-3 (Lung Adenocarcinoma); assay: as above
Outline: as §1

[34] = tested on: CCRF-CEM (T-Lymphoblastic Leukemia); assay: as above
Outline: as §1

[35] = tested on: LB831-BLC (Bladder Carcinoma); assay: as above
Outline: as §1

[36] = tested on: ME-1 (Acute Myeloid Leukemia); assay: as above
Outline: as §1

[37] = tested on: RO82-W-1 (Thyroid Gland Carcinoma); assay: as above
Outline: as §1

[38] = tested on: KURAMOCHI (Ovarian Carcinoma); assay: as above
Outline: as §1

[39] = tested on: HO-1-N-1 (Oral Cavity Carcinoma); assay: as above
Outline: as §1

[40] = tested on: LS-180 (Colorectal Carcinoma); assay: as above
Outline: as §1

[41] = tested on: NCI-H2085 (Non-Small Cell Lung Carcinoma); assay: as above
Outline: as §1

[42] = tested on: CaR-1 (Colorectal Carcinoma); assay: as above
Outline: as §1

[43] = tested on: HCC-78 (Lung Adenocarcinoma); assay: as above
Outline: as §1

T98G (Glioblastoma) [44] = assay: as above
Outline: as §1

[45] = tested on: TE-15 (Esophageal Squamous Cell Carcinoma); assay: as above
Outline: as §1

C[C@@H]1COCCN1c1cc(C2([S@](C)(=N)=O)CC2)nc(-c2ccnc3[nH]ccc23)n1 [AZD6738] + Nc1ccn([C@@H]2O[C@H](CO)[C@@H](O)C2(F)F)c(=O)n1 [Gemcitabine] (first compound max 10 µM, 7x7, partner max 0.3 µM)
Bliss excess [1]: 0.038 | Bliss excess (KELLY (Neuroblastoma) [2]): -0.0042 | Bliss excess [3]: -0.0097 | Bliss excess (NB10 (Neuroblastoma)): 0.0622 | Bliss excess (HOS (Osteosarcoma) [4]): 0.134 | Bliss excess [5]: 0.012 | Bliss excess [6]: -0.0333 | Bliss excess [7]: 0.113 | Bliss excess [8]: 0.0914 | Bliss excess [9]: 0.118 | Bliss excess [10]: 0.0685 | Bliss excess [11]: 0.0838 | Bliss excess [12]: 0.113 | Bliss excess [13]: 0.15 | Bliss excess [14]: 0.0907 | Bliss excess [15]: -0.018 | Bliss excess [16]: 0.0761 | Bliss excess [17]: 0.0528 | Bliss excess [18]: -0.0568 | Bliss excess [19]: 0.07 | Bliss excess [20]: 0.0538 | Bliss excess [21]: 0.067 | Bliss excess (T98G (Glioblastoma) [22]): -0.0284 | Bliss excess [23]: 0.0378 | combination Emax [24]: 0.538 | combination Emax (KELLY (Neuroblastoma) [25]): 1 | combination Emax [26]: 0.491 | combination Emax (HOS (Osteosarcoma) [27]): 0.87 | combination Emax [28]: 0.772 | combination Emax [29]: 0.987 | combination Emax [30]: 0.966 | combination Emax [31]: 1 | combination Emax [32]: 0.795 | combination Emax [33]: 0.694 | combination Emax [34]: 1 | combination Emax [35]: 0.9 | combination Emax [36]: 0.774 | combination Emax [37]: 0.223 | combination Emax [38]: 0.667 | combination Emax [39]: 1 | combination Emax [40]: 0.819 | combination Emax [41]: 0.587 | combination Emax [42]: 0.752 | combination Emax [43]: 0.901 | combination Emax (T98G (Glioblastoma) [44]): 0.858 | combination Emax [45]: 0.939
